Test results as given in the supplement of paper PMC10307832.

Experiments:
Assay in all cases: relative viability (nuclei count vs DMSO), 5 days (fraction); higher = more cells survive
Vandetanib + Tozasertib = compound: COc1cc2/c(=N/c3ccc(Br)cc3F)nc[nH]c2cc1OCC1CCN(C)CC1 [Vandetanib] + Cc1cc(Nc2cc(N3CCN(C)CC3)nc(Sc3ccc(NC(=O)C4CC4)cc3)n2)n[nH]1 [Tozasertib] (partner 0.1 µM)
In short: (§1)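 Dosing by pin tool came one day after lung cancer cell lines were seeded in 1536-well plates, using either one drug or a fixed anchor-drug dose plus five library-drug doses (not always all listed) in √10 steps. After 5 days, nuclei were counted on 4× images. Relative viability is treated-well nuclei count divided by vehicle-well nuclei count, and values are medians of duplicate plates.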

NVP-TAE684 + AZD7762 = compound: COc1cc(N2CCC(N3CCN(C)CC3)CC2)ccc1Nc1ncc(Cl)c(Nc2ccccc2S(=O)(=O)C(C)C)n1 [NVP-TAE684] + NC(=O)Nc1cc(-c2cccc(F)c2)sc1C(=O)N[C@H]1CCCNC1 [AZD7762] (partner 0.2 µM)
In short: as §1

Vandetanib + Decitabine = compound: COc1cc2/c(=N/c3ccc(Br)cc3F)nc[nH]c2cc1OCC1CCN(C)CC1 [Vandetanib] + Nc1ncn([C@H]2C[C@H](O)[C@@H](CO)O2)c(=O)n1 [Decitabine] (partner 2 µM)
In short: as §1

NVP-TAE684 + OSI-027 = compound: COc1cc(N2CCC(N3CCN(C)CC3)CC2)ccc1Nc1ncc(Cl)c(Nc2ccccc2S(=O)(=O)C(C)C)n1 [NVP-TAE684] + COc1cccc2cc(-c3nc([C@H]4CC[C@H](C(=O)O)CC4)n4ncnc(N)c34)[nH]c12 [OSI-027] (partner 0.5 µM)
In short: as §1

| Cell Line | relative viability (Vandetanib + Tozasertib; first compound 0.02 µM) | relative viability (Vandetanib + Tozasertib; first compound 0.2 µM) | relative viability (Vandetanib + Tozasertib; first compound 0.6325 µM) | relative viability (Vandetanib + Tozasertib; first compound 2 µM) | relative viability (NVP-TAE684 + AZD7762; first compound 0.2 µM) | relative viability (NVP-TAE684 + AZD7762; first compound 0.6325 µM) | relative viability (NVP-TAE684 + AZD7762; first compound 2 µM) | relative viability (Vandetanib + Decitabine; first compound 0.02 µM) | relative viability (Vandetanib + Decitabine; first compound 0.06325 µM) | relative viability (Vandetanib + Decitabine; first compound 0.2 µM) | relative viability (Vandetanib + Decitabine; first compound 0.6325 µM) | relative viability (Vandetanib + Decitabine; first compound 2 µM) | relative viability (NVP-TAE684 + OSI-027; first compound 0.2 µM) | relative viability (NVP-TAE684 + OSI-027; first compound 0.6325 µM) | relative viability (NVP-TAE684 + OSI-027; first compound 2 µM) | relative viability (Vandetanib + Tozasertib; first compound 0.06325 µM) |
| --- | --- | --- | --- | --- | --- | --- | --- | --- | --- | --- | --- | --- | --- | --- | --- | --- |
| EPLC-272H | 0.25 | 0.285 | 0.282 | 0.306 | 0.175 | 0.175 | 0.208 | 0.381 | 0.35 | 0.343 | 0.364 | 0.314 | 0.227 | 0.251 | 0.203 |  |
| H3255 | 0.469 | 0.579 | 0.554 | 0.345 | 0.939 | 0.823 | 0.881 | 0.766 | 0.559 | 0.565 | 0.387 | 0.207 | 0.531 | 0.602 | 0.4 | 0.727 |
| HARA | 0.111 | 0.0738 | 0.466 | 0.0849 | 0.305 | 0.286 | 0.258 | 0.466 | 0.653 | 0.515 | 0.559 | 0.578 | 0.538 | 0.351 | 0.281 | 0.118 |
| HCC-15 | 0.555 | 0.07 | 0.35 | 0.347 | 1.11 | 1.36 | 0.806 | 0.662 | 0.516 | 0.562 | 0.616 | 0.616 | 0.631 | 0.525 | 0.381 | 0.416 |
| HCC-44 | 0.924 | 1.01 | 1.05 | 0.949 | 1.03 | 1.08 | 1.03 | 0.999 | 0.992 | 0.949 | 0.897 | 0.973 | 0.525 | 0.428 | 0.218 | 0.851 |
| HCC-78 | 0.502 | 0.41 | 0.548 | 0.404 | 0.603 | 0.52 | 0.376 | 0.715 | 0.632 | 0.683 | 0.689 | 0.643 | 0.339 | 0.254 | 0.348 | 0.451 |
| HCC-366 | 0.125 | 0.0453 | 0.174 | 0.0919 | 0.269 | 0.194 | 0.218 | 0.291 | 0.355 | 0.354 | 0.332 | 0.347 | 1.15 | 0.772 | 0.401 | 0.112 |
| HCC-827 | 0.442 | 0.415 | 0.243 | 0.135 | 0.193 | 0.177 | 0.18 | 0.361 | 0.302 | 0.335 | 0.191 | 0.152 | 0.681 | 0.743 | 0.848 | 0.419 |
| HOP-62 | 0.42 | 0.191 | 0.384 | 0.368 | 0.898 | 0.611 | 0.525 | 0.244 | 0.267 | 0.208 | 0.202 | 0.249 | 0.902 | 0.878 |  | 0.379 |
| LC-2-ad | 0.471 | 0.467 | 0.45 | 0.357 | 0.808 | 0.818 | 0.427 | 0.707 | 0.729 | 0.89 | 0.836 | 0.616 | 0.804 | 0.673 | 0.317 | 0.462 |
